# Measurements published in patent publication US20230203485A1, “METHODS FOR MODULATING MHC-I EXPRESSION AND IMMUNOTHERAPY USES THEREOF” (Dana-Farber Cancer Institute, Inc., priority 2020, published 2023).
# Test system: class I antigen presentation gene expression in MCC cell lines
# Test: RNA-seq / DESeq2 differential expression of MCC cell lines at baseline and after IFN-γ stimulation
# Assay type: cell-based, human
# Conditions: 11 MCC cell lines, baseline vs IFNγ; negative LFC = upregulation in IFNγ-treated
# Method: FIG. 2A comprises RNA-seq heatmaps of class I antigen presentation gene expression in MCC lines and controls.
# FIG. 2B is a volcano plot of differentially expressed genes (genes below FDR cutoff 0.01 are shown in yellow) between baseline and IFN-γ-treated MCC cell lines. Differential expression analysis was performed using DESeq2, and negative LFC indicates increased expression in +IFN-γ samples. IFN genes are highlighted in red.
# RNA samples were first assessed for quality using the Agilent Bioanalyzer (DV200 metric). One hundred ng of RNA were used as the input for first strand cDNA synthesis using Superscript III reverse transcriptase and Illumina's TruSeq RNA Access Sample Prep Kit. Synthesis of the second strand of cDNA was followed by indexed adapter ligation with UMI (unique molecular index) adaptors. Subsequent PCR amplification enriched for adapted fragments. Amplified libraries were quantified, normalized, pooled, and hybridized with exome targeting oligos. Following hybridization, bead clean-up, elution and PCR was performed to prepare library pools for sequencing on Illumina flowcell lanes. Transcriptomes were sequenced to a coverage of at least 50 million reads in pairs.
# Raw fastq files for fibroblast and keratinocyte control lines were downloaded from SRA using R Bioconductor package SRAdb (Mayakonda et al. (2018) supra; Zhu et al. (2013) BMC Bioinformatics 14 (1): 1-4) using accession codes SRP126422 (4 replicates from control samples ‘NN’) and SRP131347 (6 replicates with condition: control and genotype: control). These fastq files, along with those for the mkl1 and waga cell lines, were aligned using STAR version 2.7.3a (Dobin et al. (2013) Bioinformatics 29 (1): 15-21), using index genome reference file downloaded from ftp.ebi.ac.uk/pub/databases/gencode/Gencode_human/release_19/GRCh37.p13.genome.fa.gz, transcript annotation file downloaded from data.broadinstitute.org/snowman/hg19/star/gencode.v19.annotation.gtf, and with the following options: --twopassMode Basic, --outSAMstrandField intronMotif, --alignIntronMax 1000000, --alignMatesGapMax 1000000, --sjdbScore 2, --outSAMtype BAM Unsorted, --outSAMattributes NH HI NM MD AS XS, --outFilterType BySJout, --outSAMunmapped Within, --genomeLoad NoSharedMemory, --outFilterScoreMinOverLread 0, --outFilterMatchNminOverLread 0, --outFilterMismatchNmax 999, and outFilterMultimapNmax 20. Duplicates were marked with picard MarkDuplicates version 2.22.0-SNAPSHOT.
# RNA-sequencing bam files for MCC tumor and cell line samples were downloaded from the Broad Genomics Firecloud/Terra platform using the Google Cloud Storage command line tool gsutil version 4.5 (github.com/GoogleCloudPlatform/gsutil/).
# Gene counts were obtained from bam files using featureCounts version 2.0.0 (doi.org/10.1093/bioinformatics/btt656). Very lowly expressed genes with average count across samples less than 1 were excluded from analysis. Between-sample distance metrics were computed using the Euclidean distance on the vectors of variance-stabilized counts obtained from the vst function in the DESeq2 R Bioconductor package ([…]; Love et al. (2014) Genome Biology 15 (12): 550).
# Differential expression analysis was carried out between (1) viral positive and viral negative samples (adjusting for cell line or tumor as a covariate), (2) cell line and tumor samples (adjusting for viral status as a covariate), and (3) IFNγ plus and minus samples (adjusting for viral status as a covariate) using the negative binomial GLM Wald test of DESeq2, where significance was assessed using the p-values adjusted for multiple comparisons under default settings. To account for potential global gene expression differences among sample groups, RUVg (Risso et al. (2014) […] 32 (9): 896-902) was used to estimate latent factors of unwanted variation from the list of housekeeping genes downloaded from www.tau.ac.il/˜elieis/HKG/HK_genes.txt. […]
substance,measurement,value
"IFN-y: type II interferon, recombinant human, used to treat MCC cells",log2FoldChange FBXO6 (ENSG00000116663.6),−2.854
same,log2FoldChange FREM3 (ENSG00000183090.5),−4.873
same,log2FoldChange FZD5 (ENSG00000163251.3),−1.098
same,log2FoldChange GBP1 (ENSG00000117228.9),−10.1
same,log2FoldChange GBP1P1 (ENSG00000225492.2),−7.927
same,log2FoldChange GBP2 (ENSG00000162645.8),−6.235
same,log2FoldChange GBP3 (ENSG00000117226.7),−9.215
same,log2FoldChange GBP4 (ENSG00000162654.8),−10.33
same,log2FoldChange GBP5 (ENSG00000154451.10),−5.854
same,log2FoldChange HCP5 (ENSG00000206337.6),−5.131
same,log2FoldChange HELB (ENSG00000127311.5),−1.463
same,log2FoldChange HERC5 (ENSG00000138646.4),−2.156
same,log2FoldChange HERC6 (ENSG00000138642.10),−9.027
same,log2FoldChange HLA-A (ENSG00000206503.7),−3.702
same,log2FoldChange HLA-B (ENSG00000234745.5),−4.921
same,log2FoldChange HLA-C (ENSG00000204525.10),−4.155
same,log2FoldChange HLA-DMA (ENSG00000204257.10),−3.237
same,log2FoldChange HLA-DMB (ENSG00000242574.4),−5.727
same,log2FoldChange HLA-DOA (ENSG00000204252.8),−7.789
same,log2FoldChange HLA-DOB (ENSG00000241106.2),−3.598
same,log2FoldChange HLA-DPA1 (ENSG00000231389.3),−9.303
same,log2FoldChange HLA-DPB1 (ENSG00000223865.6),−7.613
same,log2FoldChange HLA-DQB1 (ENSG00000179344.12),−7.335
same,log2FoldChange HLA-DRA (ENSG00000204287.9),−10.07
same,log2FoldChange HLA-DRB1 (ENSG00000196126.6),−7.278
same,log2FoldChange HLA-DRB5 (ENSG00000198502.5),−5.98
same,log2FoldChange HLA-E (ENSG00000204592.5),−2.608
same,log2FoldChange HLA-F (ENSG00000204642.9),−7.289
same,log2FoldChange HLA-G (ENSG00000204632.7),−3.367
same,log2FoldChange HLA-H (ENSG00000206341.6),−3.883
same,log2FoldChange HLA-J (ENSG00000204622.6),−4.551
same,log2FoldChange HLA-L (ENSG00000243753.1),−2.336
same,log2FoldChange IDO1 (ENSG00000131203.8),−5.825
same,log2FoldChange IFI6 (ENSG00000126709.10),−2.328
same,log2FoldChange IFI16 (ENSG00000163565.14),−5.946
same,log2FoldChange IFI44 (ENSG00000137965.6),−8.954
same,log2FoldChange IFI44L (ENSG00000137959.11),−7.733
same,log2FoldChange IFIH1 (ENSG00000115267.5),−4.034
same,log2FoldChange IFIT1 (ENSG00000185745.8),−3.465
same,log2FoldChange IFIT2 (ENSG00000119922.7),−6.152
same,log2FoldChange IFIT3 (ENSG00000119917.9),−9.398
same,log2FoldChange IFITM1 (ENSG00000185885.11),−8.763
same,log2FoldChange IFITM3 (ENSG00000142089.11),−7.436
same,log2FoldChange IFNB1 (ENSG00000171855.5),−3.53
same,log2FoldChange IL7 (ENSG00000104432.8),−3.753
same,log2FoldChange IL15 (ENSG00000164136.12),−6.781
same,log2FoldChange IL15RA (ENSG00000134470.15),−6.483
same,log2FoldChange IL17RC (ENSG00000163702.14),−1.188
same,log2FoldChange IL18BP (ENSG00000137496.13),−1.497
same,log2FoldChange INPPI (ENSG00000151689.8),−1.931
same,log2FoldChange IRF1 (ENSG00000125347.9),−5.385
same,log2FoldChange IRF2 (ENSG00000168310.6),−1.588
same,log2FoldChange ISG15 (ENSG00000187608.5),−3.824
same,log2FoldChange ITK (ENSG00000113263.8),−4.656
same,log2FoldChange KCNIP4 (ENSG00000185774.10),−2.647
same,log2FoldChange KDR (ENSG00000128052.8),−7.174
same,log2FoldChange KIAA0040 (ENSG00000235750.5),−3.216
same,log2FoldChange LAP3 (ENSG00000002549.8),−1.871
same,log2FoldChange LGALS12 (ENSG00000133317.10),−4.156
same,log2FoldChange LIPT1 (ENSG00000144182.12),−0.5688
same,log2FoldChange LOC154761 (ENSG00000253882.2),−3.161
same,log2FoldChange LY75 (ENSG00000054219.9),−2.87
same,log2FoldChange MAJIN (ENSG00000168070.7),−3.183
same,log2FoldChange MOB3C (ENSG00000142961.10),−1.494
same,log2FoldChange MOV10 (ENSG00000155363.14),−1.652
same,log2FoldChange MTMR9LP (ENSG00000220785.3),−0.5387
same,log2FoldChange NOD1 (ENSG00000106100.6),−1.317
same,log2FoldChange NRIR (ENSG00000225964.1),−3.724
same,log2FoldChange NUB1 (ENSG00000013374.11),−1.521
same,log2FoldChange NUGGC (ENSG00000189233.7),−3.265
same,log2FoldChange OPTN (ENSG00000123240.12),−1.482
same,log2FoldChange PARP3 (ENSG00000041880.10),−1.726
same,log2FoldChange PARP9 (ENSG00000138496.12),−5.112
same,log2FoldChange PARP10 (ENSG00000178685.9),−3.43
same,log2FoldChange PARP12 (ENSG00000059378.8),−2.758
same,log2FoldChange PARP14 (ENSG00000173193.9),−9.512
same,log2FoldChange PARP15 (ENSG00000173200.8),−3.778
same,log2FoldChange PLA2G16 (ENSG00000176485.6),−2.531
